Data: the supplement of paper PMC10307832

Experiments:
Assay in all cases: relative viability (nuclei count vs DMSO), 5 days (fraction); higher = more cells survive
NCI-H596 = tested on: NCI-H596
Method in brief: (§1)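 Lung cancer cell lines were pin-tool dosed in 1536-well plates on the day after seeding, with either a lone drug or a fixed anchor-drug dose plus five library-drug doses (not always all listed) in √10 steps. Nuclei were counted on 4× images after 5 days. Relative viability is the ratio of treated-well to vehicle-well nuclei counts, with each value a median of duplicate plates.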

COR-L23 = tested on: COR-L23
Method in brief: as §1

HCC-15 = tested on: HCC-15
Method in brief: as §1

LK-2 = tested on: LK-2
Method in brief: as §1

HCC-44 = tested on: HCC-44
Method in brief: as §1

NCI-H1437 = tested on: NCI-H1437
Method in brief: as §1

NCI-H1975 = tested on: NCI-H1975
Method in brief: as §1

A-427 = tested on: A-427
Method in brief: as §1

SW 900 = tested on: SW 900
Method in brief: as §1

NCI-H520 = tested on: NCI-H520
Method in brief: as §1

COR-L 105 = tested on: COR-L 105
Method in brief: as §1

NCI-H650 = tested on: NCI-H650
Method in brief: as §1

COc1cc(N2CCC(C(N)=O)CC2)ccc1Nc1nc(N)c(Cl)c(Nc2ccccc2S(=O)(=O)C(C)C)n1 [HG-5-88-01] + Nc1ncn([C@H]2C[C@H](O)[C@@H](CO)O2)c(=O)n1 [Decitabine] (partner 2 µM)
relative viability (NCI-H596; first compound 0.04 µM): 1.02
relative viability (NCI-H596; first compound 0.1265 µM): 0.973
relative viability (NCI-H596; first compound 0.4 µM): 1.04
relative viability (NCI-H596; first compound 1.265 µM): 0.981
relative viability (NCI-H596; first compound 4 µM): 0.974
relative viability (COR-L23; first compound 0.04 µM): 0.405
relative viability (COR-L23; first compound 0.1265 µM): 0.531
relative viability (COR-L23; first compound 0.4 µM): 0.543
relative viability (COR-L23; first compound 1.265 µM): 0.379
relative viability (COR-L23; first compound 4 µM): 0.391
relative viability (HCC-15; first compound 0.04 µM): 0.682
relative viability (HCC-15; first compound 0.1265 µM): 0.709
relative viability (HCC-15; first compound 0.4 µM): 0.487
relative viability (HCC-15; first compound 1.265 µM): 0.572
relative viability (HCC-15; first compound 4 µM): 0.477
relative viability (LK-2; first compound 0.04 µM): 0.254
relative viability (LK-2; first compound 0.1265 µM): 0.327
relative viability (LK-2; first compound 0.4 µM): 0.386
relative viability (LK-2; first compound 4 µM): 0.236
relative viability (HCC-44; first compound 0.04 µM): 0.936
relative viability (HCC-44; first compound 0.1265 µM): 0.996
relative viability (HCC-44; first compound 0.4 µM): 0.913
relative viability (HCC-44; first compound 1.265 µM): 0.996
relative viability (HCC-44; first compound 4 µM): 0.817
relative viability (NCI-H1437; first compound 0.04 µM): 0.529
relative viability (NCI-H1437; first compound 0.1265 µM): 0.565
relative viability (NCI-H1437; first compound 0.4 µM): 0.465
relative viability (NCI-H1437; first compound 1.265 µM): 0.579
relative viability (NCI-H1437; first compound 4 µM): 0.821
relative viability (NCI-H1975; first compound 0.04 µM): 0.409
relative viability (NCI-H1975; first compound 0.1265 µM): 0.474
relative viability (NCI-H1975; first compound 0.4 µM): 0.382
relative viability (NCI-H1975; first compound 1.265 µM): 0.403
relative viability (NCI-H1975; first compound 4 µM): 0.273
relative viability (A-427; first compound 0.04 µM): 0.549
relative viability (A-427; first compound 0.1265 µM): 0.598
relative viability (A-427; first compound 0.4 µM): 0.603
relative viability (A-427; first compound 1.265 µM): 0.585
relative viability (A-427; first compound 4 µM): 0.547
relative viability (SW 900; first compound 0.04 µM): 0.419
relative viability (SW 900; first compound 0.1265 µM): 0.441
relative viability (SW 900; first compound 0.4 µM): 0.528
relative viability (SW 900; first compound 1.265 µM): 0.492
relative viability (SW 900; first compound 4 µM): 0.436
relative viability (NCI-H520; first compound 0.04 µM): 0.483
relative viability (NCI-H520; first compound 0.1265 µM): 0.478
relative viability (NCI-H520; first compound 0.4 µM): 0.584
relative viability (NCI-H520; first compound 1.265 µM): 0.516
relative viability (NCI-H520; first compound 4 µM): 0.538
relative viability (COR-L 105; first compound 0.04 µM): 0.569
relative viability (COR-L 105; first compound 0.1265 µM): 0.706
relative viability (COR-L 105; first compound 0.4 µM): 0.628
relative viability (COR-L 105; first compound 1.265 µM): 0.582
relative viability (COR-L 105; first compound 4 µM): 0.577
relative viability (NCI-H650; first compound 0.04 µM): 0.357
relative viability (NCI-H650; first compound 0.1265 µM): 0.328
relative viability (NCI-H650; first compound 0.4 µM): 0.435
relative viability (NCI-H650; first compound 1.265 µM): 0.366
